In publication PMC4063187 (Journal of the American Chemical Society, 2014):
Like-named read-outs stand apart in the source and are kept apart here. Values belong to the compound of their own block, whether it stands above or below them.

Assays:
[1] = target: T1, ecDHFR (wild-type, l-DHFR) (Escherichia coli, UniProt P0ABQ4); test: steady-state absorbance at […] nm; type: biochemical; details: read-out: 25 °C, pH 7 / l-DHFR, MTEN buffer pH 7, 25 °C
T1 sequence (P0ABQ4 1-159): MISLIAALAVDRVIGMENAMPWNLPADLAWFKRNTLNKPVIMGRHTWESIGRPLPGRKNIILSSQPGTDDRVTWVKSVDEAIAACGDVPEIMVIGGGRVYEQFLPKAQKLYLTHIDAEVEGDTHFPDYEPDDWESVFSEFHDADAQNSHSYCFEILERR

[2] = target: T1, ecDHFR (wild-type, l-DHFR); test: stopped-flow tryptophan fluorescence quenching, koff/kon; type: binding
[3] = target: T1, ecDHFR (wild-type, l-DHFR); test: stopped-flow fluorescence; type: binding

Km ([1]; 100 μM NADPH): 0.53 ± 0.04 µM
SMILES: Nc1nc2c(c(=O)[nH]1)N=C(CNc1ccc(C(=O)N[C@@H](CCC(=O)O)C(=O)O)cc1)CN2 [DHF]

Kd [2]: 3220 ± 90 nM
SMILES: Nc1nc2ncc(CNc3ccc(C(=O)N[C@@H](CCC(=O)O)C(=O)O)cc3)nc2c(=O)[nH]1 [FA]

Km ([1]; 100 μM DHF): 7.2 ± 0.8 µM | Kd [3]: 180 ± 90 nM
SMILES: NC(=O)C1=CN([C@@H]2O[C@H](COP(=O)(O)OP(=O)(O)OC[C@H]3O[C@@H](n4cnc5c(N)ncnc54)[C@H](OP(=O)(O)O)[C@@H]3O)[C@@H](O)[C@H]2O)C=CC1 [NADPH]
